Data set [1] has as its target ALK2 (WT) GS and kinase domain (Homo sapiens, UniProt Q04771). Kind of data set: DSF thermal shift, wild-type ALK2. It is filed as binding.
Data set [2] has as its system ACVR1^Q207D-transgenic mouse (CAG-Z-eGFP-caALK2-Tg). Kind of data set: ACVR1^Q207D-Tg mouse model of heterotopic ossification. The settings on record: for mobility (passive range of motion): 6 mg/kg intraperitoneally twice daily, not shown. The text has this: In these animals, activation of the ACVR1^Q207D transgene and associated GFP reporter is mediated by a single intramuscular injection of Adenovirus expressing Cre recombinase (Ad.Cre) in the left hindlimb on P7. This induces the expression of the human ACVR1^Q207D transgene, as well as muscle necrosis and inflammation, which together result in the formation of heterotopic bone lesions within 7–10 days following Ad.Cre injection ([16]). This model is believed to recapitulate aspects of clinical HO and FOP, in which muscle injury and inflammation potentiate the formation of heterotopic bone in soft tissues.
(D) Representative hindlimb scoring system. All range of motion scoring was performed by 2 separate operators who were blinded to the treatment condition of the animal.
Mice were maintained in accordance with IACUC guidelines under approved experimental protocols. Cre-inducible ACVR1^Q207D (CAG-Z-eGFP-caACVR1-Tg) transgenic mice were a gift from Yuji Michina (University of Michigan, Ann Arbor, Michigan, USA) as previously described ([31]). Acvr1^[R206H]FlEx/+ mice were generated as previously described ([13]). Heterotopic bone formation in these mice was introduced via single retro-popliteal injection of adenoviral Cre-recombinase at 1 × 10^8 PFU at P7. […] Bone formation as a function of a loss of passive range of motion, via dorsiflexion of the left ankle joint was assessed daily. Scores were assessed by 2 independent observers blinded to genotype and treatment. […] To monitor the progression of HO during the in vivo studies, x-ray radiographs were also imaged at various time points. Mice were anesthetized using ketamine at 100 mg/kg and imaged nonterminally in the prone position with tibial lateralization and hip abduction, allowing for reproducible positioning. Radiographs were obtained using 30-second scans and 50 kV exposures (MS FX In Vivo Pro: Carestream Imaging). […] After reconstruction, regions of interest were chosen and exported into DICOM format, and analyzed by Osirix analysis software. Fixed soft tissues and bone were stained with alizarin red and Alcian blue as previously described ([62]).

In a further data set the target is TNIK (Homo sapiens, UniProt Q9UKE5). Kind of data set: Caliper kinase profiling (Nanosyn), TNIK. It is filed as biochemical.
The target in data set [3] is T1, recombinant ALK3 kinase domain (Homo sapiens, UniProt P36894).
T1 construct: purified recombinant ALK1-6 kinase domains; purchased Carna Bioscience 09-134
Kind of data set: LANCE Ultra TR-FRET kinase assay, ALK3. It is filed as biochemical. The settings on record: 10 nM kinase, 50 μM peptide substrate, 10 μM ATP. An excerpt: (§1) Data shown are plotted as mean ± SD. (n = 3 independent replicates). […] (n = 3 replicates). […] Data shown are plotted as mean ± SD. (n ≥ 3 independent replicates).
(§2) Recombinant ALK1 was obtained from Life Technology (catalog PV4883). Recombinant ALK2 to ALK6 were purchased from Carna Bioscience (catalog 09-134). A LANCE Ultra TR-FRET kinase assay was used for measurements of enzyme activities that included a ULight-labeled (Thr-1342) peptide substrate (catalog TRF0130-M, PerkinElmer) and a Europium-labeled anti-phospho peptide antibody (catalog TRF0218-M). The kinase reaction was carried out in a buffer containing 10 mM MgCl2, 3 mM MnCl2, 0.005% Tween-20, 2 mM DTT, and 50 mM HEPES, pH 7.0. The details of the enzyme assays will be reported in a separate paper (our unpublished observations). Briefly, 2.5 μL/well kinase protein (10 nM final) was dispensed to a white solid 1536-well plate followed by addition of 23 nL/well compound diluted in DMSO using a Pin-tool station (Wako-Kalypsis). After a 10-minute incubation at room temperature, 2.5 μL/well substrate solution (50 μM peptide and 10 μM ATP, final) was added, and the assay plate was incubated for 60 minutes at room temperature. […] The signals of time-resolved fluorescence resonance energy transfer (TR-FRET) assay were measured in an Envision plate reader (PerkinElmer) with a TR-FRET mode (Ex = 320, Em1 = 665, and Em2 = 615 nm).
(In TR-FRET formats the signal depends on donor and acceptor labels being close together.)

The conditions of data set [4]: cited from earlier work.
For data set [5], the target named is T2, recombinant ALK4 kinase domain (Homo sapiens, UniProt P36896).
T2 construct: purified recombinant ALK1-6 kinase domains; purchased Carna Bioscience 09-134
In words: LANCE Ultra TR-FRET kinase assay, ALK4. It is filed as biochemical. The settings on record: 10 nM kinase, 50 μM peptide substrate, 10 μM ATP.

The test system of another data set is zebrafish embryos. In words: Zebrafish embryo dorsalization. Conditions: incubation starting at 0.5 hours after fertilization. It is filed as in vivo. As for the experimental part:
Dorsoventral axis specification during embryogenesis is regulated by the activity of BMP signaling agonists and antagonists ([30]).
Zebrafish embryos were treated with varying inhibitor concentrations from less than or equal to 0.5 hours after fertilization. Inhibitor stocks (20 mM) were diluted in fish water from DMSO. Embryos were scored according to Mullins et al. ([61]).

A further data set has as its target RIPK2 (Homo sapiens, UniProt O43353). In words: Caliper kinase profiling (Nanosyn), RIPK2. It is filed as biochemical.
The subject of data set [6] is TGF-β–dependent phosphorylation of SMAD2. The settings on record: C2C12 cells; Western blot.
Data set [7] deals with T3, recombinant ALK1 kinase domain (Homo sapiens, UniProt P37023).
T3 construct: purified recombinant ALK1-6 kinase domains; purchased Life Technology PV4883
In words: LANCE Ultra TR-FRET kinase assay, ALK1. Conditions: 10 nM kinase, 50 μM peptide substrate, 10 μM ATP. It is filed as biochemical.
Excerpt: as §1, §2

A further data set has as its target HCK (Homo sapiens, UniProt P08631). Kind of data set: Caliper kinase profiling (Nanosyn), HCK. It is filed as biochemical.
Data set [8] deals with BMP7-induced phosphorylation of SMAD1/5. Kind of data set: Western blot, BMP7-induced phospho-SMAD1/5 in C2C12 cells. Conditions: 100 nM saracatinib. For orientation: Immunoblotting shows a protein as a band on a membrane.
The target of data set [9] is T4, recombinant ALK6 kinase domain (Homo sapiens, UniProt O00238).
T4 construct: purified recombinant ALK1-6 kinase domains; purchased Carna Bioscience 09-134
Kind of data set: LANCE Ultra TR-FRET kinase assay, ALK6. It is filed as biochemical. Conditions: 10 nM kinase, 50 μM peptide substrate, 10 μM ATP.
Excerpt: as §1, §2

In a further data set the test system is HEK293 cells. Conditions: human. As for the experimental part: (§3) Inhibition of the BMP receptors caALK1, caALK2, and caALK3 was assessed via the activity of a BMP-response element LUC reporter (BRE-Luc) stably expressed in the C2C12 cell line, whereas the activin (caALK4) and TGF-β (caALK5) receptors were profiled via a CAGA-Luc reporter construct stably expressed in HEK293 cells (Figure 2B). […] Cell viability was assayed with an MTT (3-[4,5-dimethylthiazol-2-yl]-2,5-diphenyl tetrazolium bromide) colorimetric assay (Promega) per the manufacturer’s instructions.
(§4) lines was determined using the MTT cell viability assay . Data were plotted as mean + S.E.M. and
(§5) (1 picture or pasted object on this page, not shown here)

Another data set has as its system C2C12 cells. Conditions: mouse. As for the experimental part: as §3, §4, §5
Another data set concerns the target ARG (ABL2) (Homo sapiens, UniProt P42684). Kind of data set: Caliper kinase profiling (Nanosyn), ARG. It is filed as biochemical.
Another data set concerns BMP7 signaling. In words: cells. Conditions: Homo sapiens, MDA-MB-231. As for the experimental part:
(§6) Reactions contained 10 nM kinase, 50 μM peptide substrate, and 10 μM ATP. Data shown are plotted as mean ± SD. (n = 3 independent replicates). […] Data shown are representative of more than 3 independent experiments, with data plotted as mean ±SEM. (n = 3 replicates). […] Data shown are plotted as mean ± SD. (n ≥ 3 independent replicates).
(§7) For subsequent investigations of ligand-dependent receptor signaling we used MDA-MB-231 cells stably expressing either the BRE-Luc or CAGA-Luc construct.
(§8) MDA-MB-231 cells stably expressing BRE-Luc or CAGA-Luc were generously provided by Caroline Hill (Francis Crick Institute). […] LUC activity was measured using the Promega Dual LUC Reporter Assay system and percentage activity determined compared with cells treated with growth factor and no inhibitor. Growth factors (Peprotech) were used at the following concentrations: 500 ng/mL BMP2, 10 ng/mL BMP4, 500 ng/mL BMP6, 500 ng/mL BMP7, 4 ng/mL TGF-β, and 200 ng/mL activin A. Experiments were repeated at least 3 times and plotted as mean ± SD.

The next data set deals with BMP2 signaling. Kind of data set: cells. Conditions: Homo sapiens, MDA-MB-231. As for the experimental part: as §6, §7, §8
Another data set has as its system activin A signaling. In words: cells. The settings on record: Homo sapiens, MDA-MB-231. As for the experimental part: as §6, §7, §8
Another data set relates to BMP6 signaling. Kind of data set: cells. The settings on record: Homo sapiens, MDA-MB-231. As for the experimental part: as §6, §7, §8
In another data set the test system is BMP4 signaling. In words: cells. The settings on record: Homo sapiens, MDA-MB-231. As for the experimental part: as §6, §7, §8
The target of data set [10] is T5, recombinant ALK5 kinase domain (Homo sapiens, UniProt P36897).
T5 construct: purified recombinant ALK1-6 kinase domains; purchased Carna Bioscience 09-134
In words: LANCE Ultra TR-FRET kinase assay, ALK5. It is filed as biochemical. Conditions: 10 nM kinase, 50 μM peptide substrate, 10 μM ATP.

In a further data set the test system is TGF-β signaling. Kind of data set: cells. Conditions: Homo sapiens, MDA-MB-231.
A further data set deals with LYN (Homo sapiens, UniProt P07948). Kind of data set: Caliper kinase profiling (Nanosyn), LYN. It is filed as biochemical.

Broadly, the inhibition is the relative decrease from the control value, in per cent. High values mean strong suppression, low ones little suppression. One may read the IC50 as the midpoint of a concentration-inhibition curve.

Each structure is given as a SMILES string. “Also recorded” adds a separate entry of the source.

ALK2 (WT) GS and kinase domain, sequence (Q04771 172-499): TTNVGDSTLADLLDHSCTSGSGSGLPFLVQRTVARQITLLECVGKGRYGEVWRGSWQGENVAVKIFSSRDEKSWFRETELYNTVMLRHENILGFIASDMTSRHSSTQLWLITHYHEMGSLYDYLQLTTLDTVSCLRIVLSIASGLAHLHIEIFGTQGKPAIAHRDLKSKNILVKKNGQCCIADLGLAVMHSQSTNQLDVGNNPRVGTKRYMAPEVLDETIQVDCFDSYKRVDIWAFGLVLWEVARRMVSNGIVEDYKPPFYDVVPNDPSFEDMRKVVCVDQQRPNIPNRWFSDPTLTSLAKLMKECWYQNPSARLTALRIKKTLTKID
ARG (ABL2), sequence (P42684 whole entry): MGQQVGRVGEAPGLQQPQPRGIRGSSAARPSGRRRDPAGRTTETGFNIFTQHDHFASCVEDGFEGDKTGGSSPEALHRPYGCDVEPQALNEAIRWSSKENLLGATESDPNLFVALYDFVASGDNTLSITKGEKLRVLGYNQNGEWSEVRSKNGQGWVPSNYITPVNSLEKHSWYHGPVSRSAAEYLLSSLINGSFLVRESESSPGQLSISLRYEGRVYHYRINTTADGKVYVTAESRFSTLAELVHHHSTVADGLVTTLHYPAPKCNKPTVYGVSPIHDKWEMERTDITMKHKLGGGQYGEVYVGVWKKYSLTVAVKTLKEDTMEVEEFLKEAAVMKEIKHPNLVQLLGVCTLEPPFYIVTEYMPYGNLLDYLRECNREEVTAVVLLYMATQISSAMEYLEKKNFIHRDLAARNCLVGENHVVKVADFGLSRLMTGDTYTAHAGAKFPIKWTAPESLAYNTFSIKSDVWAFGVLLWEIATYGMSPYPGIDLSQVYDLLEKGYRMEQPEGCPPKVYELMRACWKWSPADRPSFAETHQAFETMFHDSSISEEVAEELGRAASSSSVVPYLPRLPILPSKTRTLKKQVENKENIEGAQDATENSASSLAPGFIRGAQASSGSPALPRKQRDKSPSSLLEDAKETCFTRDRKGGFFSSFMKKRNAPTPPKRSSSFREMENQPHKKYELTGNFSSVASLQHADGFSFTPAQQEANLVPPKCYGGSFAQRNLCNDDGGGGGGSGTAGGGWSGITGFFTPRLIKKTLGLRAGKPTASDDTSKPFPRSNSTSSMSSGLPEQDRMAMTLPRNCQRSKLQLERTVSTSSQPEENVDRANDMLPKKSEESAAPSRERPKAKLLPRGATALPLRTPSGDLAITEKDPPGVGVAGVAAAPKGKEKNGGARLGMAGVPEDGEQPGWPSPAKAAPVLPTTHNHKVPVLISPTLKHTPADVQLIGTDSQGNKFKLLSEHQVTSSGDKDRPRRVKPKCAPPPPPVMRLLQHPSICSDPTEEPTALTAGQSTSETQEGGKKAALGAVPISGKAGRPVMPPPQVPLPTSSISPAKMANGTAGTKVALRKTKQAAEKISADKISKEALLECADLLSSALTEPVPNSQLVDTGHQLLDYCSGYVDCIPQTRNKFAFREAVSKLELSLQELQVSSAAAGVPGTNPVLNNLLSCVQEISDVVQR
HCK, sequence (P08631 whole entry): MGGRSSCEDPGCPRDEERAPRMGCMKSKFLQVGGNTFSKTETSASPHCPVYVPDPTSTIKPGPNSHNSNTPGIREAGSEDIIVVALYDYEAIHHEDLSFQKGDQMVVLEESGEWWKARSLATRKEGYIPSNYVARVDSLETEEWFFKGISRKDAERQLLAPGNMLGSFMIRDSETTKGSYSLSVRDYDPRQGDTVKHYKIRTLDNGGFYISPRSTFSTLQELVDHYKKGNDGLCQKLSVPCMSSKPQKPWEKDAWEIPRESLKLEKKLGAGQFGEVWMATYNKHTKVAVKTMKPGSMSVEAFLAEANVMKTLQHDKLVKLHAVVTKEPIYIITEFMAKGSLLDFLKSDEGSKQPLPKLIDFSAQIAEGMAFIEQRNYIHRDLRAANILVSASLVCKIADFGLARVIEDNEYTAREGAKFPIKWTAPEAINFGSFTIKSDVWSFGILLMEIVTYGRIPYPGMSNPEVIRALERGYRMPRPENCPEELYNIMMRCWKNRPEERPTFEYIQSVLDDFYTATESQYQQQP
T1 sequence (P36894 234-525 limits assumed): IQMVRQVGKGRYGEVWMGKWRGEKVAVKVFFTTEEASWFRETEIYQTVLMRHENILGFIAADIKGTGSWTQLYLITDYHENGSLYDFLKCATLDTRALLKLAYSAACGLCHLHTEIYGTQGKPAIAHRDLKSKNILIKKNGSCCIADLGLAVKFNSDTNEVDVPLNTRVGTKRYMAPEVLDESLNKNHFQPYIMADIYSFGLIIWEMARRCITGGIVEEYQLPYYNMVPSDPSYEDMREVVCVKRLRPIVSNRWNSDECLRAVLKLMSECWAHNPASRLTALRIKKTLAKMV
LYN, sequence (P07948 whole entry): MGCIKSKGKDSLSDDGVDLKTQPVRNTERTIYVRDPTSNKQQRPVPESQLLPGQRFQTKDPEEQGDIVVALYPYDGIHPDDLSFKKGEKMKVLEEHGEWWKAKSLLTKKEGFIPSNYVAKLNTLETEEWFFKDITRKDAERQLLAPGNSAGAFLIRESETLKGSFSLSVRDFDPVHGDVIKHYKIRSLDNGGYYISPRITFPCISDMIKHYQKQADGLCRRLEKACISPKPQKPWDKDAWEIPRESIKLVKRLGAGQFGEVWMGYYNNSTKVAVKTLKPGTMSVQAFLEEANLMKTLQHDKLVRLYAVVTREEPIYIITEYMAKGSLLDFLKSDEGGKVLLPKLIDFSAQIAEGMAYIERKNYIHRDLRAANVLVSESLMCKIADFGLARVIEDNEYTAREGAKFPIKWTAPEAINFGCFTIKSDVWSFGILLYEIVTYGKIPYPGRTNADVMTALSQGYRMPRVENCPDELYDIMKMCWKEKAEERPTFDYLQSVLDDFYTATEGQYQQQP
T3 sequence (P37023 202-492 limits assumed): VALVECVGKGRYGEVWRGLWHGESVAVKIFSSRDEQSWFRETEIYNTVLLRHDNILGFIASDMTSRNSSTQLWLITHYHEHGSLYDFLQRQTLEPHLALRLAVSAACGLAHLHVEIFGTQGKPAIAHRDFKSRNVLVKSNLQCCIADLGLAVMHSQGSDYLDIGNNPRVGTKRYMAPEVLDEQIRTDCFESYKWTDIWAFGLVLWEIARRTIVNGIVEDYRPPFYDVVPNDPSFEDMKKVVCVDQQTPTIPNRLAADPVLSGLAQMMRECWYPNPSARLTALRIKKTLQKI
TNIK, sequence (Q9UKE5 whole entry, the tested form may be a part): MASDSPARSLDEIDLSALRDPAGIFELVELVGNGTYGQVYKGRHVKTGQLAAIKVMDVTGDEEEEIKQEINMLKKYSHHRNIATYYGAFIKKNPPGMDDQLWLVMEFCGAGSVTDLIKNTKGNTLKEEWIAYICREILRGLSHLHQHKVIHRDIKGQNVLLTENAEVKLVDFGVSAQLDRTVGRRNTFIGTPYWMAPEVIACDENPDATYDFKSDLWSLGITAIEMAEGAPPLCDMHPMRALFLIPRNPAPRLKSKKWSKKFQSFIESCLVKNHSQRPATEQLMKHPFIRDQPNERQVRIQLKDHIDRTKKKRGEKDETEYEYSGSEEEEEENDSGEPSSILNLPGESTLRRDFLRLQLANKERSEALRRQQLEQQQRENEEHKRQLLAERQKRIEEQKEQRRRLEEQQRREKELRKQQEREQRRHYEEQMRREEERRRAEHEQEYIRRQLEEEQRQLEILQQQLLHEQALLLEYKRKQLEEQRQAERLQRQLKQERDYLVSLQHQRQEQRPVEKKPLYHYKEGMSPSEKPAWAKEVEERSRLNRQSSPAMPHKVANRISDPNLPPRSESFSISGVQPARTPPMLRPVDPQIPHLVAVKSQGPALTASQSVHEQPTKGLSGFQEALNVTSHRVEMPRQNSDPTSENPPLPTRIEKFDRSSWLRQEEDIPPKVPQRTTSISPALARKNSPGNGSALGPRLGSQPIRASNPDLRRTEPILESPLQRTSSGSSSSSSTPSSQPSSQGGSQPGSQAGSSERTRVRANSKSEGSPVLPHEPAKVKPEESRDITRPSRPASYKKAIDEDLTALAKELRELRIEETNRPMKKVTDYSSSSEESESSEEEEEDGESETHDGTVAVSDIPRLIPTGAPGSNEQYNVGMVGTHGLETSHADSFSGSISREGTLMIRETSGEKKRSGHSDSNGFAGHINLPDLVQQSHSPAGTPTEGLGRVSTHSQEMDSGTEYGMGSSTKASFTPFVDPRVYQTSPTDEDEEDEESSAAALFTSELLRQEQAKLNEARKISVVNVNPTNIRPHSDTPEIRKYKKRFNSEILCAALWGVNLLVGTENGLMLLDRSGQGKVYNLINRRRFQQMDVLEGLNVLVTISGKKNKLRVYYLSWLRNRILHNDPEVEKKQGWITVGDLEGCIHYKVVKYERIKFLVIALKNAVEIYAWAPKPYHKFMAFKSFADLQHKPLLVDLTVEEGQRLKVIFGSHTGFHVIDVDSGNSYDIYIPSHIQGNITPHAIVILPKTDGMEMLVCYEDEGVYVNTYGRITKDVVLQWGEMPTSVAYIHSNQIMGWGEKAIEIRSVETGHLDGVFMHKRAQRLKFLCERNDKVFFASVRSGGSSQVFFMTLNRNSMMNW
T5 sequence (P36897 205-495 limits assumed): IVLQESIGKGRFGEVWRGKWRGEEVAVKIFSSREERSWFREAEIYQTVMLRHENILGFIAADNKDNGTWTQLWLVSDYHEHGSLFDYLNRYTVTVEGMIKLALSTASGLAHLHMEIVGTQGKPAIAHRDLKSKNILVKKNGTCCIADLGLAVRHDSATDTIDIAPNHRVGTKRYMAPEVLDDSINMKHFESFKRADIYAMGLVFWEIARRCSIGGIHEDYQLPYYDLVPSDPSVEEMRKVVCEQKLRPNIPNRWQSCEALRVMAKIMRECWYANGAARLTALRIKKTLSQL

Consider `COc1cc(N2CCC(N3CCN(C)CC3)CC2)ccc1Nc1ncnc(Nc2ccccc2S(=O)(=O)C(C)C)n1` [ASP3026], for which the “ΔTm (thermal shift)” value in data set [1] (ALK2 WT, 2 μM protein, 12.5 μM compound) turned out to be 10.7 °C.
On to `COc1cc2c(Nc3ccc(Br)cc3F)ncnc2cc1OCC1CCN(C)CC1` [vandetanib], for which the “binding to ALK2 (in words)” value in data set [1] (Supplemental Figure 1C) is “does not show any notable binding to ALK2”. Also, in [2] (25 mg/kg i.p. twice daily for 28 days), the “HO formation / range of motion” value is listed as “no evidence of improvement in radiographic HO or range-of motion; also recorded: did not block HO formation”.
In the case of `c1cc(-c2cnn3cc(-c4ccc(N5CCNCC5)cc4)cnc23)c2cccnc2c1` [LDN-212854], the “weight loss relative to vehicle-treated animals” value in [2] (6 mg/kg i.p. twice daily) was 10%–25%. The “mobility (passive range of motion)” value in [2] is given as “almost entirely preserved”.
For the compound `CN1CCN(CCOc2cc(OC3CCOCC3)c3c(Nc4c(Cl)ccc5c4OCO5)ncnc3c2)CC1` [saracatinib], the inhibition at 0.1 µM against TNIK, against RIPK2, at HCK, at ARG (ABL2) and at LYN was greater than 50% throughout. Moreover, the IC50 came to 621 nM in data set [3]; 3900 nM in data set [5]; 19 nM in data set [7]; 6130 nM in data set [9]; 5.5 nM with BMP7 signaling; 61 nM in the data set with BMP2 signaling. The IC50 with activin A signaling stood at 72 nM; in the data set on BMP6 signaling, 8.9 nM; in the data set on BMP4 signaling it was 131 nM; in data set [10], 6890 nM; in the data set on TGF-β signaling, 305 nM. Also, in data set [4], the t1/2 result was “approximately 40 hours”. For the same compound, in [4] (doses up to 125 mg daily for 9–12 months, phase II), the primary side effect entry is listed as “gastrointestinal discomfort”. For the same compound, in data set [4] (healthy volunteers), the “daily dose up to which safe” value is no more than 250 mg. The “adverse effects associated with higher doses” value in data set [4] (previous oncology trials, higher doses) is “neutropenia and thrombocytopenia”. For the same compound, the “cyclopia or mesoderm specification phenotypes” value in the data set on zebrafish embryos is “no evidence of cyclopia or phenotypes suggesting inhibition of mesoderm specification”. Further, the dorsalization phenotype result in the data set with zebrafish embryos is on record as “dorsalized phenotype that increased in severity in a dose-dependent manner”. Also, the “inhibitor concentration at which TGF-β–dependent phosphorylation of SMAD2 was blocked” value in data set [6] worked out at 5 µM. The “BMP7-induced phosphorylation of SMAD1/5” value in [8] was “completely inhibited”. Moreover, the “concentration up to which well tolerated” value with HEK293 cells and in the data set with C2C12 cells was “approximately 40 μM” each time.
Regarding `c1ccc2c(-c3cnn4cc(-c5ccc(N6CCNCC6)cc5)cnc34)ccnc2c1` [LDN-193189], the “mobility (passive range of motion)” value in data set [2] is “almost entirely preserved”.
